# In ChEMBL document CHEMBL2413072, “Synthesis and in vitro anticancer studies of novel C-2 arylidene congeners of lantadenes” (2013):
# Assays:
# Type in all cases: functional
# CCRF-CEM = assay: Growth inhibition of human CCRF-CEM cells by sulforhodamine B assay
# U-251 [1] = assay: Growth inhibition of human U251 cells assessed as cell growth at 10^-6 M by sulforhodamine B assay; conditions: read-out: Activity
# PC-3 = assay: Growth inhibition of human PC3 cells assessed as cell growth at 10^-4 M by sulforhodamine B assay; conditions: read-out: Activity
# HCT-116 [2] = assay: Growth inhibition of human HCT116 cells by sulforhodamine B assay
# SK-MEL-2 = assay: Growth inhibition of human SK-MEL-2 cells assessed as cell growth at 10^-8 M by sulforhodamine B assay; conditions: read-out: Activity
# MDA-MB-435 = assay: Growth inhibition of human MDA-MB-435 cells assessed as cell growth at 10^-7 M by sulforhodamine B assay; conditions: read-out: Activity
# [3] = Growth inhibition of human NCI-ADR-RES cells assessed as cell growth at 10^-8 M by sulforhodamine B assay; conditions: read-out: Activity
# HOP-92 = assay: Growth inhibition of human HOP92 cells by sulforhodamine B assay
# MCF7 [4] = assay: Growth inhibition of human MCF7 cells assessed as cell growth at 10^-8 M by sulforhodamine B assay; conditions: read-out: Activity
# NCI-H226 = assay: Growth inhibition of human NCI-H226 cells assessed as cell growth at 10^-4 M by sulforhodamine B assay; conditions: read-out: Activity
# T47D = assay: Growth inhibition of human T47D cells assessed as cell growth at 10^-8 M by sulforhodamine B assay; conditions: read-out: Activity
# NCI-H23 [5] = assay: Growth inhibition of human NCI-H23 cells assessed as cell growth at 10^-8 M by sulforhodamine B assay; conditions: read-out: Activity
# SF-268 [6] = assay: Growth inhibition of human SF268 cells by sulforhodamine B assay
# NCI-H23 [7] = assay: Growth inhibition of human NCI-H23 cells assessed as cell growth at 10^-6 M by sulforhodamine B assay; conditions: read-out: Activity
# [8] = Growth inhibition of human Hs 578T cells by sulforhodamine B assay
# BT-549 = assay: Growth inhibition of human BT549 cells assessed as cell growth at 10^-6 M by sulforhodamine B assay; conditions: read-out: Activity
# UACC-257 = assay: Growth inhibition of human UACC257 cells assessed as cell growth at 10^-6 M by sulforhodamine B assay; conditions: read-out: Activity
# SK-MEL-28 [9] = assay: Growth inhibition of human SK-MEL-28 cells by sulforhodamine B assay
# SN12C = assay: Growth inhibition of human SN12C cells assessed as cell growth at 10^-7 M by sulforhodamine B assay; conditions: read-out: Activity
# UACC-62 = assay: Growth inhibition of human UACC62 cells assessed as cell growth at 10^-7 M by sulforhodamine B assay; conditions: read-out: Activity
# DU-145 [10] = assay: Growth inhibition of human DU145 cells assessed as cell growth at 10^-4 M by sulforhodamine B assay; conditions: read-out: Activity
# SF-268 [11] = assay: Growth inhibition of human SF268 cells assessed as cell growth at 10^-7 M by sulforhodamine B assay; conditions: read-out: Activity
# SK-MEL-5 = assay: Growth inhibition of human SK-MEL-5 cells assessed as cell growth at 10^-8 M by sulforhodamine B assay; conditions: read-out: Activity
# A549 = assay: Growth inhibition of human A549/ATCC cells assessed as cell growth at 10^-7 M by sulforhodamine B assay; conditions: read-out: Activity
# NCI-H460 = assay: Growth inhibition of human NCI-H460 cells assessed as cell growth at 10^-6 M by sulforhodamine B assay; conditions: read-out: Activity
# HL-60(TB) [12] = assay: Growth inhibition of human HL-60(TB) cells assessed as cell growth at 10^-7 M by sulforhodamine B assay; conditions: read-out: Activity
# SNB-75 [13] = assay: Growth inhibition of human SNB75 cells by sulforhodamine B assay
# HL-60(TB) [14] = assay: Growth inhibition of human HL-60(TB) cells assessed as cell growth at 10^-4 M by sulforhodamine B assay; conditions: read-out: Activity
# U-251 [15] = assay: Growth inhibition of human U251 cells assessed as cell growth at 10^-7 M by sulforhodamine B assay; conditions: read-out: Activity
# SNB-75 [16] = assay: Growth inhibition of human SNB75 cells assessed as cell growth at 10^-7 M by sulforhodamine B assay; conditions: read-out: Activity
# DU-145 [17] = assay: Growth inhibition of human DU145 cells by sulforhodamine B assay
# NCI-H522 = assay: Growth inhibition of human NCI-H522 cells by sulforhodamine B assay
# SK-MEL-28 [18] = assay: Growth inhibition of human SK-MEL-28 cells assessed as cell growth at 10^-8 M by sulforhodamine B assay; conditions: read-out: Activity
# OVCAR-8 = assay: Growth inhibition of human OVCAR8 cells assessed as cell growth at 10^-4 M by sulforhodamine B assay; conditions: read-out: Activity
# HCT-116 [19] = assay: Growth inhibition of human HCT116 cells assessed as cell growth at 10^-7 M by sulforhodamine B assay; conditions: read-out: Activity
# SR = assay: Growth inhibition of human SR cells assessed as cell growth at 10^-4 M by sulforhodamine B assay; conditions: read-out: Activity
# HCT-15 = assay: Growth inhibition of human HCT15 cells assessed as cell growth at 10^-4 M by sulforhodamine B assay; conditions: read-out: Activity
# MCF7 [20] = assay: Growth inhibition of human MCF7 cells assessed as cell growth at 10^-6 M by sulforhodamine B assay; conditions: read-out: Activity
# CAKI-1 = assay: Growth inhibition of human CAKI-1 cells assessed as cell growth at 10^-6 M by sulforhodamine B assay; conditions: read-out: Activity
# [21] = read-out: LC50 (the source's name)
# [22] = read-out: pLC50 (the source's name) (converted)
smiles,measurement,setting,value
CC(C)=CC(=O)O[C@@H]1CC(C)(C)C[C@H]2C3=CC[C@@H]4[C@@]5(C)CCC(=O)C(C)(C)[C@@H]5CC[C@@]4(C)[C@]3(C)CC[C@@]12C(=O)O,GI50,CCRF-CEM; read-out: GI50,2.14 µM
same,CC50,CCRF-CEM; [21],> 100 µM
same,TGI,CCRF-CEM; read-out: TGI,22.1 µM
same,GI50,CCRF-CEM; read-out: pGI50 (converted),2.14 µM
same,CC50,CCRF-CEM; [22],> 100 µM
same,TGI,CCRF-CEM; read-out: pTGI (converted),22.4 µM
same,growth at 1 µM,U-251 [1],74%
same,growth at 100 µM,PC-3,-1%
same,GI50,HCT-116 [2]; read-out: GI50,2.35 µM
same,LC50,HCT-116 [2]; read-out: LC50,> 100 µM
same,TGI,HCT-116 [2]; read-out: TGI,53.5 µM
same,GI50,HCT-116 [2]; read-out: pGI50 (converted),2.34 µM
same,LC50,HCT-116 [2]; read-out: pLC50 (converted),> 100 µM
same,TGI,HCT-116 [2]; read-out: pTGI (converted),53.7 µM
same,growth at 0.01 µM,SK-MEL-2,94%
same,growth at 0.1 µM,MDA-MB-435,98%
same,growth at 0.01 µM,[3],103%
same,GI50,HOP-92; read-out: GI50,1.7 µM
same,CC50,HOP-92; [21],> 100 µM
same,TGI,HOP-92; read-out: TGI,7.02 µM
same,GI50,HOP-92; read-out: pGI50 (converted),1.7 µM
same,CC50,HOP-92; [22],> 100 µM
same,TGI,HOP-92; read-out: pTGI (converted),7.08 µM
same,growth at 0.01 µM,MCF7 [4],87%
same,growth at 100 µM,NCI-H226,12%
same,growth at 0.01 µM,T47D,103%
same,growth at 0.01 µM,NCI-H23 [5],94%
same,GI50,SF-268 [6]; read-out: GI50,5.27 µM
same,LC50,SF-268 [6]; read-out: LC50,> 100 µM
same,TGI,SF-268 [6]; read-out: TGI,29.4 µM
same,GI50,SF-268 [6]; read-out: pGI50 (converted),5.25 µM
same,LC50,SF-268 [6]; read-out: pLC50 (converted),> 100 µM
same,TGI,SF-268 [6]; read-out: pTGI (converted),29.5 µM
same,growth at 1 µM,NCI-H23 [7],88%
same,GI50,[8]; read-out: GI50,4.16 µM
same,CC50,[8]; [21],> 100 µM
same,TGI,[8]; read-out: TGI,53.6 µM
same,GI50,[8]; read-out: pGI50 (converted),4.17 µM
same,CC50,[8]; [22],> 100 µM
same,TGI,[8]; read-out: pTGI (converted),53.7 µM
same,growth at 1 µM,BT-549,90%
same,growth at 1 µM,UACC-257,83%
same,GI50,SK-MEL-28 [9]; read-out: GI50,11.6 µM
same,CC50,SK-MEL-28 [9]; [21],> 100 µM
same,TGI,SK-MEL-28 [9]; read-out: TGI,> 100 µM
same,GI50,SK-MEL-28 [9]; read-out: pGI50 (converted),11.7 µM
same,CC50,SK-MEL-28 [9]; [22],> 100 µM
same,TGI,SK-MEL-28 [9]; read-out: pTGI (converted),> 100 µM
same,growth at 0.1 µM,SN12C,96%
same,growth at 0.1 µM,UACC-62,97%
same,growth at 100 µM,DU-145 [10],-51%
same,growth at 0.1 µM,SF-268 [11],94%
same,growth at 0.01 µM,SK-MEL-5,99%
same,growth at 0.1 µM,A549,88%
same,growth at 1 µM,NCI-H460,71%
same,growth at 0.1 µM,HL-60(TB) [12],93%
same,GI50,SNB-75 [13]; read-out: GI50,7.71 µM
same,CC50,SNB-75 [13]; [21],> 100 µM
same,TGI,SNB-75 [13]; read-out: TGI,39.2 µM
same,GI50,SNB-75 [13]; read-out: pGI50 (converted),7.76 µM
same,CC50,SNB-75 [13]; [22],> 100 µM
same,TGI,SNB-75 [13]; read-out: pTGI (converted),38.9 µM
same,growth at 100 µM,HL-60(TB) [14],-38%
same,growth at 0.1 µM,U-251 [15],90%
same,growth at 0.1 µM,SNB-75 [16],90%
same,GI50,DU-145 [17]; read-out: GI50,5.12 µM
same,CC50,DU-145 [17]; [21],98.3 µM
same,TGI,DU-145 [17]; read-out: TGI,25.1 µM
same,GI50,DU-145 [17]; read-out: pGI50 (converted),5.13 µM
same,CC50,DU-145 [17]; [22],97.7 µM
same,TGI,DU-145 [17]; read-out: pTGI (converted),25.1 µM
same,GI50,NCI-H522; read-out: GI50,3.14 µM
same,CC50,NCI-H522; [21],> 100 µM
same,TGI,NCI-H522; read-out: TGI,29.4 µM
same,GI50,NCI-H522; read-out: pGI50 (converted),3.16 µM
same,CC50,NCI-H522; [22],> 100 µM
same,TGI,NCI-H522; read-out: pTGI (converted),29.5 µM
same,growth at 0.01 µM,SK-MEL-28 [18],108%
same,growth at 100 µM,OVCAR-8,11%
same,growth at 0.1 µM,HCT-116 [19],98%
same,growth at 100 µM,SR,-15%
same,growth at 100 µM,HCT-15,-34%
same,growth at 1 µM,MCF7 [20],84%
same,growth at 1 µM,CAKI-1,87%
